For nine molecules, DC50 and Dmax results are on record in US20250059198A1, “BRM DEGRADING COMPOUNDS AND ASSOCIATED METHODS OF USE” (Arvinas Operations, Inc., priority 2021, published 2025).

This assay deals with T1, BRM (Homo sapiens, UniProt P51531).
T1 construct: Western Blot Screen of BRM Degradation in SW1573 Cells; endogenous in cells; host or cells: SW1573 cells
The experiment in a line: BRM degradation (Dmax and DC50) in SW1573 cells, Western blot screen / In-Cell Western screen. It counts as cell-based. The settings on record: overnight (18-20 hours) treatment; for Dmax: read-out: Dmax (%)** (% degraded). The method, then: To assess BRM degradation (Dmax and DC50) cells were seeded at 8000/well in 96-well black/clear-bottom plates in 180 μL DMEM growth media (containing 1% pen-strep, 1% HEPES and 10% FBS) per well. Plates were incubated overnight to allow adhesion. The next morning cells were treated by adding 20 μL of 10× target compound concentration (1% DMSO) to appropriate wells and returned to incubator for overnight (18-20 hours). The final DMSO concentration was 0.1%.
For lysing, adherent cells were washed once with 100 μL of DPBS. Cells were lysed in 40 μL of 1×RIPA+HALT protease inhibitor on ice for 10 minutes and frozen until use at −80° C. Thawed lysates were cleaned by filtration in 1.2 µm filter plates, or alternatively, were spun clean at 2300 g at 4° C. for 30 minutes.
For blotting, for each Western sample 30 μL of lysate was added to 10 μL of 4× LDS sample buffer, then denatured at 95° C. for 5 minutes in the thermal cycler and placed on ice. Samples were loaded on 4-15% Tris/Glycine gels and run for 25 minutes at 250 constant volts in 1× Tris/Glycine buffer with 4 μL of ladder and 12 μL of each sample loaded for each blot. Protein was transferred from gels to NC with BioRad Turbo dry-transfer unit with the Turbo/midi default program. All blots were rinsed with ddH2O and blocked for 1 hour at room temperature in 5% BSA in TBST (0.1%) on rocker. Blots were exposed to primary antibody in 5% BSA in TBST (0.1%) overnight at 4° C. on rocker (1:1000 for BRM (Cell Signaling Tech. cat #11966) and 1:2000 for alpha-tubulin (Cell Signaling Tech. cat #3873), a control protein. Blot was washed with TBST (0.1%) three times for 5 minutes on rocker at room temperature. Secondary antibody was added, and blots were incubated on a room temperature rocker for 1 hour with 1:18,000 anti-rabbit-HRP and/or anti-mouse-HRP in 5% BSA in TBST (0.1%). Blots were washed three times in TBST (0.1%) for 5 minutes at room temperature on the rocker. Signal was developed with Femto Maximum Sensitivity substrate for 4 minutes and blots read on ChemiDoc™.
To assess BRM degradation (Dmax and DC50), cells were seeded at 8000/well in 96-well black/clear-bottom plates in 180 μL DMEM growth media (containing 1% pen-strep, 1% HEPES and 10% FBS) per well. Plates were incubated overnight to allow adhesion. The next morning cells were treated by adding 20 μL of 10× compound (1% DMSO) to appropriate wells and returned to incubator for overnight (18-20 hours). The final DMSO concentration was 0.1%.
For processing, the plates were removed from incubator, the media was removed, and immediately 200 μL of cold (4° C.) DPBS was added to all wells. DPBS was then removed, and 50 μL of 4% paraformaldehyde (PFA) in DPBS (4° C.) was added to all wells, and the plates were incubated at room temperature for 20 minutes. PFA was then removed, and 200 μL of TBS-T containing 0.5% Triton X-100 was added to all wells, and the plates were incubated at room temperature for 30 minutes. TBS-T containing 0.5% Triton X-100 was then removed, and 50 μL of Li-Cor blocking solution was added, and the plates were incubated at room temperature for a minimum of one hour. The blocking solution was removed, and 50 μL of Li-Cor blocking solution containing primary antibody cocktail was added (1:1000 for BRM (Cell Signaling Tech. cat #11966) and 1:2000 for alpha-tubulin (Sigma cat #T6074), a control protein. Plates were then placed in cold room until the next day.
The next day plates were washed three times with TBS-T, 200 μL per well. Fifty […] of secondary antibody cocktail in LI-COR blocking solution (anti-rabbit_800 nm and anti-mouse_680 nm) was added to all wells (diluted 1:5000). The plates were incubated at room temperature for at least one hour while protected from light. The plates were washed twice with TBS-T, 200 μL per well.
To read each plate TBS-T was removed, and each plate was inverted tapped on a paper towel. […]

T1 sequence (P51531 whole entry): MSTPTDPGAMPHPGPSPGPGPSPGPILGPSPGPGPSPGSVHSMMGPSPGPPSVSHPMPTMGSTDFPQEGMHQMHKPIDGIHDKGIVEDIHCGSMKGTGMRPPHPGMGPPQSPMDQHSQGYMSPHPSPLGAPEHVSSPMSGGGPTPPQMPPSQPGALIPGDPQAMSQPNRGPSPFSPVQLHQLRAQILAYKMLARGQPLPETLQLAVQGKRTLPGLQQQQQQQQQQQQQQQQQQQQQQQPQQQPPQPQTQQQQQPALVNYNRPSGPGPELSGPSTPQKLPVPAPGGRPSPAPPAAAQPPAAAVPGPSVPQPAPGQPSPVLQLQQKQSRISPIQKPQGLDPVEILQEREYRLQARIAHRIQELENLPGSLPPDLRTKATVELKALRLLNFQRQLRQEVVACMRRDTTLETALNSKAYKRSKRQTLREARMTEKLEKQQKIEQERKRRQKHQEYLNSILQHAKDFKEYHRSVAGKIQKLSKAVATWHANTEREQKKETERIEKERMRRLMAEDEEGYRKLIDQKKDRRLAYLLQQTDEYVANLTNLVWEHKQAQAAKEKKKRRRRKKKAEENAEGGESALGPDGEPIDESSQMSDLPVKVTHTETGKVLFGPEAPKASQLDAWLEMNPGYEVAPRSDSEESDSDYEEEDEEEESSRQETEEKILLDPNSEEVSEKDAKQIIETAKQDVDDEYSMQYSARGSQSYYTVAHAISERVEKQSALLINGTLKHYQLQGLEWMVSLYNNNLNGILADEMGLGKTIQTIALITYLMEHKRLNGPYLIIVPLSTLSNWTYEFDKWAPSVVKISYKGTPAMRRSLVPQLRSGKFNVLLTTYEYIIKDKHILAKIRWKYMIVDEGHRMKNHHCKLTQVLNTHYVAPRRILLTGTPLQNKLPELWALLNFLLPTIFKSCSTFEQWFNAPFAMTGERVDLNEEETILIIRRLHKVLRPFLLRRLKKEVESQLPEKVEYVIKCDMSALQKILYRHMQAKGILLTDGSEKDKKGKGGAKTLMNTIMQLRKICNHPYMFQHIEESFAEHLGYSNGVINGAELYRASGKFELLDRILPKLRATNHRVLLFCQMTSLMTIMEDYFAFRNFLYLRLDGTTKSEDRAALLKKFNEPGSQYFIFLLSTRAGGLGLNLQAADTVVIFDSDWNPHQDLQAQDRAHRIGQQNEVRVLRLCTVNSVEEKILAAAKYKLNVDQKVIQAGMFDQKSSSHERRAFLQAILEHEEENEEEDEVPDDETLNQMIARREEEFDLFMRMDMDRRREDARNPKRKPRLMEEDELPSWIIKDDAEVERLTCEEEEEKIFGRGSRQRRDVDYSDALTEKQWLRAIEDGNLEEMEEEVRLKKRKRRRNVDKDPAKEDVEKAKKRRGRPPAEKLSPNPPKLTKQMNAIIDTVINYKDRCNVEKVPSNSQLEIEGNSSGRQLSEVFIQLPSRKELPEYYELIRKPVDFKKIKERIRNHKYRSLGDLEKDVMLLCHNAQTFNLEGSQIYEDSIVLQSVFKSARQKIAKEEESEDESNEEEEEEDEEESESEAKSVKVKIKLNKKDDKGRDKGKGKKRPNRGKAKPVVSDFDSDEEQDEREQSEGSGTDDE

`Cc1ncsc1-c1ccc([C@H](C)NC(=O)[C@@H]2C[C@@H](O)CN2C(=O)[C@@H](c2cc(N3CCC(CN4CCC(O[C@H]5C[C@H](N6CCC(C(=O)N7C8CCC7CN(c7cc(-c9ccccc9O)nnc7N)C8)CC6)C5)CC4)CC3)no2)C(C)C)cc1` [Compound 25, (2S,4R)-4-hydroxy-N-[(1S)-1-[4-(4-methyl-1,3-thiazol-5-yl)phenyl]ethyl]-1-[(2R)-3-methyl-2-{3-[4-({4-[(1r,3r)-3-(4-{3-[3-amino-6-(2-hydroxyphenyl)pyridazin-4-yl]-3,8-diazabicyclo[3.2.1]octane-8-carbonyl}piperidin-1-yl)cyclobutoxy]piperidin-1-yl}methyl)piperidin-1-yl]-1,2-oxazol-5-yl}butanoyl]pyrrolidine-2-carboxamide]: the DC50 was less than 2.5 nM and the Dmax was more than 75%.

As for `Cc1ncsc1-c1ccc([C@H](C)NC(=O)[C@@H]2C[C@@H](O)CN2C(=O)[C@@H](c2cc(N3CCC(CN4CCC(O[C@H]5C[C@H](N6CCC(Cc7cn(-c8cc(-c9ccccc9O)nnc8N)cn7)CC6)C5)CC4)CC3)no2)C(C)C)cc1` [Compound 130, (2S,4R)-4-hydroxy-N-[(1S)-1-[4-(4-methyl-1,3-thiazol-5-yl)phenyl]ethyl]-1-[(2R)-3-methyl-2-{3-[4-({4-[(1r,3r)-3-[4-({1-[3-amino-6-(2-hydroxyphenyl)pyridazin-4-yl]-1H-imidazol-4-yl}methyl)piperidin-1-yl]cyclobutoxy]piperidin-1-yl}methyl)piperidin-1-yl]-1,2-oxazol-5-yl}butanoyl]pyrrolidine-2-carboxamide], the DC50 lay within 10 to 30 nM and the Dmax is more than 75%.

For `Cc1ncsc1-c1ccc([C@H](C)NC(=O)[C@@H]2C[C@@H](O)CN2C(=O)[C@@H](c2cc(N3CCC(CN4CCC5(CC4)CC(N4CCO[C@@H](CN6C7CCC6CN(c6cc(-c8ccccc8O)nnc6N)C7)C4)C5)CC3)no2)C(C)C)cc1` [Compound 119, (2S,4R)-1-[(2R)-2-{3-[4-({2-[(2R)-2-({3-[3-amino-6-(2-hydroxyphenyl)pyridazin-4-yl]-3,8-diazabicyclo[3.2.1]octan-8-yl}methyl)morpholin-4-yl]-7-azaspiro[3.5]nonan-7-yl}methyl)piperidin-1-yl]-1,2-oxazol-5-yl}-3-methylbutanoyl]-4-hydroxy-N-[(1S)-1-[4-(4-methyl-1,3-thiazol-5-yl)phenyl]ethyl]pyrrolidine-2-carboxamide], the DC50 was less than 2.5 nM and the Dmax was more than 75%.

The molecule `CC(C)[C@H](C(=O)N1C[C@H](O)C[C@H]1C(=O)N[C@@H](C)c1ccc(C#N)cc1)c1cc(O[C@H]2C[C@H](CN3CCC(O[C@H]4C[C@H](Oc5cc(N6C7CCC6CN(c6cc(-c8ccccc8O)nnc6N)C7)ccn5)C4)CC3)C2)no1` [Compound 1, (2S,4R)-N-[(1S)-1-(4-cyanophenyl)ethyl]-4-hydroxy-1-[(2S)-3-methyl-2-{3-[(1r,3r)-3-({4-[(1r,3r)-3-[(4-{3-[3-amino-6-(2-hydroxyphenyl)pyridazin-4-yl]-3,8-diazabicyclo[3.2.1]octan-8-yl}pyridin-2-yl)oxy]cyclobutoxy]piperidin-1-yl}methyl)cyclobutoxy]-1,2-oxazol-5-yl}butanoyl]pyrrolidine-2-carboxamide] yielded a DC50 not below 30 nM.

In the case of `CC(C)[C@@H](C(=O)N1C[C@H](O)C[C@H]1C(=O)N[C@@H](C)c1ccc(C#N)cc1)c1cc(N2CCC(C(=O)N3CCC(O[C@H]4C[C@H](Oc5cc(N6C7CCC6CN(c6cc(-c8ccccc8O)nnc6N)C7)ccn5)C4)CC3)CC2)no1` [Compound 138, (2S,4R)-N-[(1S)-1-(4-cyanophenyl)ethyl]-4-hydroxy-1-[(2R)-3-methyl-2-[3-(4-{4-[(1r,3r)-3-[(4-{3-[3-amino-6-(2-hydroxyphenyl)pyridazin-4-yl]-3,8-diazabicyclo[3.2.1]octan-8-yl}pyridin-2-yl)oxy]cyclobutoxy]piperidine-1-carbonyl}piperidin-1-yl)-1,2-oxazol-5-yl]butanoyl]pyrrolidine-2-carboxamide], the DC50 is less than 2.5 nM and the Dmax was more than 75%.

Consider `Cc1ncsc1-c1ccc([C@H](C)NC(=O)[C@@H]2C[C@@H](O)CN2C(=O)[C@@H](c2cc(N3CCC(CN4CCC(O[C@H]5C[C@H](N6CCC(F)(CN7C8CCC7CN(c7cc(-c9ccccc9O)nnc7N)C8)CC6)C5)CC4)CC3)no2)C(C)C)cc1` [Compound 27, (2S,4R)-4-hydroxy-N-[(1S)-1-[4-(4-methyl-1,3-thiazol-5-yl)phenyl]ethyl]-1-[(2R)-3-methyl-2-{3-[4-({4-[(1r,3r)-3-[4-({3-[3-amino-6-(2-hydroxyphenyl)pyridazin-4-yl]-3,8-diazabicyclo[3.2.1]octan-8-yl}methyl)-4-fluoropiperidin-1-yl]cyclobutoxy]piperidin-1-yl}methyl)piperidin-1-yl]-1,2-oxazol-5-yl}butanoyl]pyrrolidine-2-carboxamide], for which the DC50 was less than 2.5 nM and the Dmax was more than 75%.

In the case of `Cc1ncsc1-c1ccc([C@H](C)NC(=O)[C@@H]2C[C@@H](O)CN2C(=O)[C@@H](c2cc(N3CCC(CN4CCC5(CC4)CC(N4CCC[C@@H](CN6C7CCC6CN(c6cc(-c8ccccc8O)nnc6N)C7)C4)C5)CC3)no2)C(C)C)cc1` [Compound 70, (2S,4R)-1-[(2R)-2-{3-[4-({2-[(3R)-3-({3-[3-amino-6-(2-hydroxyphenyl)pyridazin-4-yl]-3,8-diazabicyclo[3.2.1]octan-8-yl}methyl)piperidin-1-yl]-7-azaspiro[3.5]nonan-7-yl}methyl)piperidin-1-yl]-1,2-oxazol-5-yl}-3-methylbutanoyl]-4-hydroxy-N-[(1S)-1-[4-(4-methyl-1,3-thiazol-5-yl)phenyl]ethyl]pyrrolidine-2-carboxamide], the DC50 is less than 2.5 nM and the Dmax is more than 75%.

Turning to `CC(C)[C@@H](C(=O)N1C[C@H](O)C[C@H]1C(=O)N[C@@H](C)c1ccc(C#N)cc1)c1cc(N2CCC(CN3CC[C@H](Oc4cc(N5C6CCC5CN(c5cc(-c7ccccc7O)nnc5N)C6)ccn4)[C@H](F)C3)CC2)no1` [Compound 156, (2S,4R)-1-[(2R)-2-[3-(4-{[(3R,4S)-4-[(4-{3-[3-amino-6-(2-hydroxyphenyl)pyridazin-4-yl]-3,8-diazabicyclo[3.2.1]octan-8-yl}pyridin-2-yl)oxy]-3-fluoropiperidin-1-yl]methyl}piperidin-1-yl)-1,2-oxazol-5-yl]-3-methylbutanoyl]-N-[(1S)-1-(4-cyanophenyl)ethyl]-4-hydroxypyrrolidine-2-carboxamide], the DC50 is less than 2.5 nM and the Dmax is more than 75%.

Consider `CC(C)[C@@H](C(=O)N1C[C@H](O)C[C@H]1C(=O)N[C@@H](C)c1ccc(C#N)cc1)c1cc(N2CCC(CN3CCC(O[C@H]4C[C@H](N5CCC(C(C)n6cc(C#Cc7cc(-c8ccccc8O)nnc7N)cn6)CC5)C4)CC3)CC2)no1` (stereo partly drawn) [Compound 78, (2S,4R)-N-[(1S)-1-(4-cyanophenyl)ethyl]-4-hydroxy-1-[(2R)-3-methyl-2-{3-[4-({4-[(1r,3r)-3-{4-[1-(4-{2-[3-amino-6-(2-hydroxyphenyl)pyridazin-4-yl]ethynyl}-1H-pyrazol-1-yl)ethyl]piperidin-1-yl}cyclobutoxy]piperidin-1-yl}methyl)piperidin-1-yl]-1,2-oxazol-5-yl}butanoyl]pyrrolidine-2-carboxamide], for which the DC50 lay within 2.5 to 10 nM and the Dmax is more than 75%.

The DC50 is the midpoint of the concentration-degradation curve. Low values mean a more potent degrader, high ones a less potent degrader. Usually Dmax stands for the greatest extent of degradation seen.
